Consider 41 compounds from ChEMBL document CHEMBL3880383, “2-oxo-1-pyrrolidine derivative and its pharmaceutical uses” (2004).

Experiment [1] relates to Mus musculus. Description: Anticonvulsant activity in ip dosed sound susceptible DBA mouse model assessed as protection against audiogenic seizure-induced wild running, clonic and tonic convulsion administered 60 mins prior to induction of audiogenic seizures measured for 30 secs. Format: functional. As to conditions: Mus musculus, DBA, ip; read-out: ED50.
For experiment [2], the target named is Synaptic vesicle glycoprotein 2A (Rattus norvegicus, UniProt Q02563). Description: Displacement of [3H]-2-[4-(3-azidophenyl)-2-oxo-1-pyrrolidinyl]butanamide from SV2A levetiracetam binding site in Sprague-Dawley rat cerebral cortex membranes after 120 mins by liquid scintillation counting method. Also noted: species or system Membrane. In general terms: Displacement assays read how much labelled ligand stays bound in the presence of the test substance.
Chain of Synaptic vesicle glycoprotein 2A (Q02563 whole entry): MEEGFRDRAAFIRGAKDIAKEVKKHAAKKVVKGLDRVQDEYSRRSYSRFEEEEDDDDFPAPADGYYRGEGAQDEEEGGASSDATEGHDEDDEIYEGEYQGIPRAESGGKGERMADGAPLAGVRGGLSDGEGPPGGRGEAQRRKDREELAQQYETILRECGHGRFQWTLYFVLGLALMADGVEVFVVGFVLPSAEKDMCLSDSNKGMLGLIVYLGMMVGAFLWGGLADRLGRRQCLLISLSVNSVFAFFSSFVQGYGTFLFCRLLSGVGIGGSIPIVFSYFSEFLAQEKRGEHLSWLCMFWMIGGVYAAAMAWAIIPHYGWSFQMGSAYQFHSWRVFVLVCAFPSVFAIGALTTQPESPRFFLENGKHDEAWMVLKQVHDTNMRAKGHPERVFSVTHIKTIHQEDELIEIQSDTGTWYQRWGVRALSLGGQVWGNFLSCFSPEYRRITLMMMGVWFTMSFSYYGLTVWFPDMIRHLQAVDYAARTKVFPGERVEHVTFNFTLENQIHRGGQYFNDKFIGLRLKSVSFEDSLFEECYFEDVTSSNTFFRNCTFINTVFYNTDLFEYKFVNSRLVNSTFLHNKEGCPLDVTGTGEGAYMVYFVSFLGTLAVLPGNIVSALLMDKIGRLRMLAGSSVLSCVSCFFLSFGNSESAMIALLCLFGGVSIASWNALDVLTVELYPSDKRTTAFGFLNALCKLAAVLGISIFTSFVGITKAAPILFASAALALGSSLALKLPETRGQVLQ

Each structure is given as a SMILES string.

What is called ED50 is the midpoint of the dose-response relation. By Ki is commonly meant a dissociation constant, usually derived from enzyme kinetics or from competition with a known ligand. Lower therefore signals higher affinity.

Consider `CC[C@@H](C(N)=O)N1CC(CC2CC2)CC1=O` (some centres undefined), for which, in experiment [1], the ED50 was 100 µmol/kg. Besides, the Ki in experiment [2] was ≤ 1000 nM.
Consider `CCCC1(C)CC(=O)N([C@@H](CC)C(N)=O)C1` (some centres undefined), for which the ED50 in experiment [1] was determined as 100 µmol/kg. Moreover, in experiment [2], the Ki was ≤ 1000 nM.
The matching figures for `CCC[C@H]1CC(=O)N([C@@H](CC)C(N)=O)C1`: 100 µmol/kg and ≤ 1000 nM.
As to `CCCCCC1CC(=O)N(C(CC)C(N)=O)C1` (centres undefined), in experiment [2], the Ki was ≤ 1000 nM.
For `CCC1CC(=O)N([C@@H](CC)C(N)=O)C1` (some centres undefined), the ED50 in experiment [1] stood at 100 µmol/kg. Further, the Ki in experiment [2] is ≤ 1000 nM.
The matching figures for `CC[C@@H](C(N)=O)N1C[C@H](CI)CC1=O`: 100 µmol/kg and ≤ 1000 nM.
As to `CC[C@@H](C(N)=O)N1CC(CC(C)(C)C)CC1=O` (some centres undefined), the Ki in experiment [2] was ≤ 1000 nM.
On to `CCCCC1CC(=O)N(C(CC)C(N)=O)C1` (centres undefined), for which the ED50 in experiment [1] is 100 µmol/kg. For the same compound, in experiment [2], the Ki is ≤ 1000 nM.
The like results for `CCC(C(N)=O)N1CC(C=C(F)F)CC1=O` (centres undefined) were, in that order, 100 µmol/kg and ≤ 1000 nM.
Consider `CC[C@@H](C(N)=O)N1CC(CN=C=S)CC1=O` (some centres undefined), for which the Ki in experiment [2] was ≤ 1000 nM.
On to `CC[C@@H](C(N)=O)N1CC(CCc2ccccc2)CC1=O` (some centres undefined), for which the Ki in experiment [2] is ≤ 1000 nM.
Regarding `CCC(C(N)=O)N1CC(c2ccco2)CC1=O` (centres undefined), the ED50 in experiment [1] is 100 µmol/kg. Also, in experiment [2], the Ki is ≤ 1000 nM.
The like results for `CC[C@@H](C(N)=O)N1CC(Cn2cnnn2)CC1=O` (some centres undefined) were, in that order, 100 µmol/kg and ≤ 1000 nM.
The like results for `CCC(C(N)=O)N1CC(c2cccnc2)CC1=O` (centres undefined) were, in that order, 100 µmol/kg and ≤ 1000 nM.
The like results for `CC[C@@H](C(N)=O)N1CC(n2cccc2)CC1=O` (some centres undefined) were, in that order, 100 µmol/kg and ≤ 1000 nM.
With `CC[C@@H](C(N)=O)N1CC(c2cccc(N=[N+]=[N-])c2)CC1=O` (some centres undefined), the median effective dose (ED50) in experiment [1] turned out to be 100 µmol/kg. Moreover, the Ki in experiment [2] was ≤ 1000 nM.
On to `CCC(C(N)=O)N1CC(C=C(C)C)CC1=O` (centres undefined), for which the 50% effective dose (ED50) in experiment [1] worked out at 100 µmol/kg. Moreover, the Ki in experiment [2] is ≤ 1000 nM.
With `CC[C@@H](C(N)=O)N1CC(n2cccc2Br)CC1=O` (some centres undefined), the ED50 in experiment [1] worked out at 100 µmol/kg. In experiment [2], the Ki was ≤ 1000 nM.
With `CC[C@@H](C(N)=O)N1CC(c2ccccc2)CC1=O` (some centres undefined), the ED50 in experiment [1] came to 100 µmol/kg. In experiment [2], the Ki was ≤ 1000 nM.
The like results for `CC[C@@H](C(N)=O)N1CC(CC(C)=O)CC1=O` (some centres undefined) were, in that order, 100 µmol/kg and ≤ 1000 nM.
The like results for `CC[C@@H](C(N)=O)N1C[C@@H](C=C(F)F)CC1=O` were, in that order, 100 µmol/kg and ≤ 1000 nM.
The like results for `C=CC1CC(=O)N(C(CC)C(N)=O)C1` (centres undefined) were, in that order, 100 µmol/kg and ≤ 1000 nM.
With `CCC(C(N)=O)N1CC(CI)CC1=O` (centres undefined), the inhibitory constant (Ki) in experiment [2] is ≤ 1000 nM.
For `CC[C@@H](C(N)=O)N1CC(C#CBr)CC1=O` (some centres undefined), the ED50 in experiment [1] is 100 µmol/kg. For the same compound, in experiment [2], the Ki is ≤ 1000 nM.
The matching figures for `CCC(C(N)=O)N1C[C@H](CC(C)(F)F)CC1=O` (some centres undefined): 100 µmol/kg and ≤ 1000 nM.
The like results for `CC[C@@H](C(N)=O)N1CC(c2ccsc2)CC1=O` (some centres undefined) were, in that order, 100 µmol/kg and ≤ 1000 nM.
On to `CCC(C(N)=O)N1CC(CC2CC2)CC1=O` (centres undefined), for which the ED50 in experiment [1] amounted to 100 µmol/kg. Besides, in experiment [2], the Ki was ≤ 1000 nM.
The matching figures for `CCC(C(N)=O)N1CC(CC(C)C)CC1=O` (centres undefined): 100 µmol/kg and ≤ 1000 nM.
`CCC(C(N)=O)N1CC(c2ccc(Cl)cc2)CC1=O` (centres undefined): in experiment [2], the Ki was ≤ 1000 nM.
Consider `CCC[C@@H](C(N)=O)N1C[C@H](CI)CC1=O`, for which, in experiment [1], the ED50 was determined as 100 µmol/kg. Further, the Ki in experiment [2] was ≤ 1000 nM.
The like results for `CC[C@@H](C(N)=O)N1CC(CCC(F)(F)F)CC1=O` (some centres undefined) were, in that order, 100 µmol/kg and ≤ 1000 nM.
For `CCCC1CC(=O)N(C(Cc2cscn2)C(N)=O)C1` (centres undefined), the Ki in experiment [2] was ≤ 1000 nM.
On to `CCC(C(N)=O)N1CC(c2ccccc2F)CC1=O` (centres undefined), for which, in experiment [1], the 50% effective dose (ED50) was found to be 100 µmol/kg. Further, in experiment [2], the inhibitory constant (Ki) was ≤ 1000 nM.
The like results for `CCC(C(N)=O)N1CC(c2ccc(Cl)c(Cl)c2)CC1=O` (centres undefined) were, in that order, 100 µmol/kg and ≤ 1000 nM.
Take `CCCC1CC(=O)N(C(CC)C(N)=O)C1` (centres undefined): the ED50 in experiment [1] is 100 µmol/kg. In addition, the Ki in experiment [2] is ≤ 1000 nM.
The matching figures for `C=C[C@@H]1CC(=O)N([C@@H](CC)C(N)=O)C1`: 100 µmol/kg and ≤ 1000 nM.
Turning to `CCC(C(N)=O)N1CC(c2cc(C(F)(F)F)cc(C(F)(F)F)c2)CC1=O` (centres undefined), the Ki in experiment [2] was ≤ 1000 nM.
In the case of `CCC(C(N)=O)N1CC(c2ccccc2Br)CC1=O` (centres undefined), in experiment [1], the ED50 was 100 µmol/kg. For the same compound, the inhibitory constant (Ki) in experiment [2] is ≤ 1000 nM.
For `C#CC1CC(=O)N(C(CC)C(N)=O)C1` (centres undefined), the ED50 in experiment [1] came to 100 µmol/kg. In addition, the Ki in experiment [2] was ≤ 1000 nM.
The matching figures for `C[C@@H](C(N)=O)N1C[C@H](CI)CC1=O`: 100 µmol/kg and ≤ 1000 nM.
The like results for `CCC(C(N)=O)N1CC(c2cccc(C)c2)CC1=O` (centres undefined) were, in that order, 100 µmol/kg and ≤ 1000 nM.
